SMILES strings stand for the structures.

In general, IC50 refers to the midpoint of a concentration-inhibition curve. High values mean a need for much substance, low ones inhibition by little substance.

Assay in all cases: Live cell target engagement (NanoBRET) in HEK293 cells
Type in all cases: cell-based
On the technique in general: BRET reads energy transfer from a luciferase to a nearby fluorophore.

The target in assay [1] is AKT2 (Homo sapiens (Human), UniProt P31751). Conditions: HEK293, 2 hours at 37° C.
In assay [2] the target is AKT1 E17K (Homo sapiens (Human), UniProt P31749, E17K). As to conditions: for IC50: HEK293, 2 hours at 37° C.
Assay [3] deals with AKT1 WT (Homo sapiens (Human), UniProt P31749). As to conditions: HEK293, 2 hours at 37° C.
Sequence of AKT1 WT (P31749 whole entry): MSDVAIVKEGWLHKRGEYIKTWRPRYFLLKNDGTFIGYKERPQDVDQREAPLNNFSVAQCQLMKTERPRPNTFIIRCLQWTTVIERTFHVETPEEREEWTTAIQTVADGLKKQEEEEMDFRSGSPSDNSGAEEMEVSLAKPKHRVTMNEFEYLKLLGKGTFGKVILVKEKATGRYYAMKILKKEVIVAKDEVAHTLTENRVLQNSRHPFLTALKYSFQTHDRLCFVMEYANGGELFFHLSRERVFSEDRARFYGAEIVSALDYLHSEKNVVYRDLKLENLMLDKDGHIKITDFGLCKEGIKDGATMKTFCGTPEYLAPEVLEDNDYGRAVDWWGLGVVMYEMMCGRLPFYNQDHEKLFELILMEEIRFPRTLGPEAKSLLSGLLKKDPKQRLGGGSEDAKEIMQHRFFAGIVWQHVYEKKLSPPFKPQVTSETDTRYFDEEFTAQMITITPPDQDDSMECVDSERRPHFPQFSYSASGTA

Sequence of AKT2 (P31751 whole entry): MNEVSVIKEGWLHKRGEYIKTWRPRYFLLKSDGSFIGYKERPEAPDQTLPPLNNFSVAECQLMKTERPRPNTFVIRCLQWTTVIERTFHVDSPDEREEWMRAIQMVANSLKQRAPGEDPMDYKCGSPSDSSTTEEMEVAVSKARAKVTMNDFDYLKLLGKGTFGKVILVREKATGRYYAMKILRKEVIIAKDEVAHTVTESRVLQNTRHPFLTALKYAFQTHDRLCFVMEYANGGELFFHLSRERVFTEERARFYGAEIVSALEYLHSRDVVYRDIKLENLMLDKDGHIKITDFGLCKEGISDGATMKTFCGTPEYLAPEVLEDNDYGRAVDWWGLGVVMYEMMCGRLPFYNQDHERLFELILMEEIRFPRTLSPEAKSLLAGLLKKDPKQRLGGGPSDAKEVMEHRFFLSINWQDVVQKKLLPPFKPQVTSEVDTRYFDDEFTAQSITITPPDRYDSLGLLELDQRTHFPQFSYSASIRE
Sequence of AKT1 E17K (P31749 whole entry E17K): as the sequence (P31749 whole entry) above, with E17K counted along it

Turning to `Cn1cc(-c2ccc3nc(-c4cccnc4N)n(-c4ccc(CNC(=O)Cc5ccc(C=O)c(O)c5)cc4)c3n2)cn1` [Compound 32, N-({4-[2-(2-aminopyridin-3-yl)-5-(1-methylpyrazol-4-yl)imidazo[4,5-b]pyridin-3-yl]phenyl}methyl)-2-(4-formyl-3-hydroxyphenyl)acetamide], in assay [1], the IC50 was greater than 500 nM. In addition, in assay [2], the “AKT1 E17K IC50: Selectivity vs AKT1 WT” value worked out at 9, the “AKT1 E17K IC50: Selectivity vs AKT2” value was 110 and the IC50 was less than 100 nM. For the same compound, the IC50 in assay [3] lay in the range of 100 to 500 nM.

Take `CC(NCCc1ccc(O)c(C=O)c1)c1ccc(-n2c(-c3cccnc3N)nc3ccc(-c4ccccc4)nc32)cc1` (centres unmarked) [Compound 126, 5-(2-((1-(4-(2-(2-aminopyridin-3-yl)-5-phenyl-3H-imidazo[4,5-b]pyridin-3-yl)phenyl)ethyl)amino)ethyl)-2-hydroxybenzaldehyde]: the IC50 in assay [1] fell in the range of 100 to 500 nM. In assay [2], the “AKT1 E17K IC50: Selectivity vs AKT1 WT” value is 5, the “AKT1 E17K IC50: Selectivity vs AKT2” value was 12 and the IC50 is less than 100 nM. For the same compound, in assay [3], the IC50 was less than 100 nM.

Take `Nc1ncccc1-c1nc2ccc(-c3ccccc3)nc2n1-c1ccc(CNCCc2ccc(O)c(C=O)c2)cc1` [Compound 135, 5-(2-((4-(2-(2-aminopyridin-3-yl)-5-phenyl-3H-imidazo[4,5-b]pyridin-3-yl)benzyl)amino)ethyl)-2-hydroxybenzaldehyde]: the IC50 in assay [1], in assay [2] and in assay [3] was less than 100 nM each time. Besides, in assay [2], the “AKT1 E17K IC50: Selectivity vs AKT1 WT” value is reported as 0.16. For the same compound, the “AKT1 E17K IC50: Selectivity vs AKT2” value in assay [2] was found to be 0.72.

`Nc1ncccc1-c1nc2ccc(-c3cccc(N4CCC(N5CCCC5=O)CC4)c3F)nc2n1-c1ccc(CNC(=O)Cc2ccc(C=O)c(O)c2)cc1` [Compound 42, N-({4-[2-(2-aminopyridin-3-yl)-5-{2-fluoro-3-[4-(2-oxopyrrolidin-1-yl)piperidin-1-yl]phenyl}imidazo[4,5-b]pyridin-3-yl]phenyl}methyl)-2-(4-formyl-3-hydroxyphenyl)acetamide] gave an IC50 in assay [1] of less than 100 nM. In addition, in assay [2], the “AKT1 E17K IC50: Selectivity vs AKT1 WT” value amounted to 1.7, the “AKT1 E17K IC50: Selectivity vs AKT2” value was found to be 4.8 and the IC50 is less than 100 nM. Further, the IC50 in assay [3] was less than 100 nM.

`Nc1ncccc1-c1nc2ccc(-c3ccccc3)nc2n1-c1ccc(S(=O)(=O)NCCc2ccc(C=O)c(O)c2)cc1` [Compound 106, 4-[2-(2-aminopyridin-3-yl)-5-phenylimidazo[4,5-b]pyridin-3-yl]-N-[2-(4-formyl-3-hydroxyphenyl)ethyl]benzenesulfonamide] came in with an IC50 in assay [1] greater than 500 nM. In assay [2], the “AKT1 E17K IC50: Selectivity vs AKT1 WT” value came out at 0.85, the “AKT1 E17K IC50: Selectivity vs AKT2” value was 0.91 and the IC50 was greater than 500 nM. The compound further came in with an IC50 in assay [3] greater than 500 nM.

Compound `Nc1ncccc1-c1nc2ccc(-n3cccn3)nc2n1-c1ccc(CNC(=O)Cc2ccc(C=O)c(O)c2)cc1` [Compound 35, N-({4-[2-(2-aminopyridin-3-yl)-5-(pyrazol-1-yl)imidazo[4,5-b]pyridin-3-yl]phenyl}methyl)-2-(4-formyl-3-hydroxyphenyl)acetamide] registered an IC50 in assay [1] of 100 to 500 nM. In assay [2], the “AKT1 E17K IC50: Selectivity vs AKT1 WT” value came to 3.4, the “AKT1 E17K IC50: Selectivity vs AKT2” value is reported as 140 and the IC50 is less than 100 nM. Moreover, the IC50 in assay [3] is less than 100 nM.

For the compound `Nc1ncccc1-c1nc2cccnc2n1-c1ccc(CNCCc2ccc(C=O)c(O)c2F)cc1` [Compound 95, 4-(2-((4-(2-(2-aminopyridin-3-yl)-3H-imidazo[4,5-b]pyridin-3-yl)benzyl)amino)ethyl)-3-fluoro-2-hydroxybenzaldehyde], the IC50 in assay [1] was greater than 500 nM. Further, in assay [2], the “AKT1 E17K IC50: Selectivity vs AKT1 WT” value turned out to be 1.8, the “AKT1 E17K IC50: Selectivity vs AKT2” value stood at 2.5 and the IC50 was greater than 500 nM. This compound also showed an IC50 in assay [3] greater than 500 nM.

In the case of `CC(C)(O)c1ccc2nc(-c3cccnc3N)n(-c3ccc(CNC(=O)Cc4ccc(C=O)c(O)c4)cc3)c2n1` [Example 17, N-({4-[2-(2-aminopyridin-3-yl)-5-(2-hydroxypropan-2-yl)imidazo[4,5-b]pyridin-3-yl]phenyl}methyl)-2-(4-formyl-3-hydroxyphenyl)acetamide], the IC50 in assay [1] is greater than 500 nM; in assay [2], less than 100 nM; in assay [3] it was greater than 500 nM. The “AKT1 E17K IC50: Selectivity vs AKT1 WT” value in assay [2] came out at 10. Further, in assay [2], the “AKT1 E17K IC50: Selectivity vs AKT2” value was greater than 110.

Consider `C[C@@H](NCCc1ccc(O)c(C=O)c1)c1ccc(-n2c(-c3cccnc3N)nc3ccc(-c4ccccc4)nc32)cc1` [Compound 105, (R)-5-(2-((1-(4-(2-(2-aminopyridin-3-yl)-5-phenyl-3H-imidazo[4,5-b]pyridin-3-yl)phenyl)ethyl)amino)ethyl)-2-hydroxybenzaldehyde], for which the IC50 in assay [1], in assay [2] and in assay [3] was greater than 500 nM throughout. For the same compound, the “AKT1 E17K IC50: Selectivity vs AKT1 WT” value in assay [2] is 1. Further, in assay [2], the “AKT1 E17K IC50: Selectivity vs AKT2” value is greater than 1.0.

For `Nc1ncccc1-c1nc2ccc(-c3ccccc3)nc2n1-c1ccc(CC(=O)NC2(c3ccc(C=O)c(O)c3)CC2)cc1` [Example 11, 2-{4-[2-(2-aminopyridin-3-yl)-5-phenylimidazo[4,5-b]pyridin-3-yl]phenyl}-N-[1-(4-formyl-3-hydroxyphenyl)cyclopropyl]acetamide], the IC50 was 100 to 500 nM in assay [1], less than 100 nM in assay [2] and less than 100 nM in assay [3]. In assay [2], the “AKT1 E17K IC50: Selectivity vs AKT1 WT” value was 3.1. In addition, in assay [2], the “AKT1 E17K IC50: Selectivity vs AKT2” value is 28.

With `Nc1ncccc1-c1nc2cccnc2n1-c1ccc(CNC(=O)Cc2ccc(C=O)c(NC(=O)C3CC3)c2)cc1` [Compound 48, N-(5-(2-((4-(2-(2-aminopyridin-3-yl)-3H-imidazo[4,5-b]pyridin-3-yl)benzyl)amino)-2-oxoethyl)-2-formylphenyl)cyclopropanecarboxamide], the IC50 in assay [1] is greater than 500 nM; in assay [2], less than 100 nM; in assay [3], 100 to 500 nM. The “AKT1 E17K IC50: Selectivity vs AKT1 WT” value in assay [2] stood at 8.5. In assay [2], the “AKT1 E17K IC50: Selectivity vs AKT2” value is on record as 120.

Compound `CC1(c2ccc3nc(-c4cccnc4N)n(-c4ccc(CNC(=O)Cc5ccc(C=O)c(O)c5)cc4)c3n2)CC1` [Example 18, N-({4-[2-(2-aminopyridin-3-yl)-5-(1-methylcyclopropyl)imidazo[4,5-b]pyridin 3-yl]phenyl}methyl)-2-(4-formyl-3-hydroxyphenyl)acetamide] returned an IC50 in assay [1] greater than 500 nM. Also, in assay [2], the “AKT1 E17K IC50: Selectivity vs AKT1 WT” value was 6.1, the “AKT1 E17K IC50: Selectivity vs AKT2” value is reported as 150 and the IC50 is less than 100 nM. This compound displayed an IC50 in assay [3] of 100 to 500 nM.

In assay [1], `Nc1ncccc1-c1nc2ccc(-c3ccccc3)nc2n1-c1ccc(CNC(=O)c2cc(C=O)c(O)cc2F)cc1` [Example 4, N-({4-[2-(2-aminopyridin-3-yl)-5-phenylimidazo[4,5-b]pyridin-3-yl]phenyl}methyl)-2-fluoro-5-formyl-4-hydroxybenzamide] yielded an IC50 greater than 500 nM. Also, in assay [2], the “AKT1 E17K IC50: Selectivity vs AKT1 WT” value was found to be 2, the “AKT1 E17K IC50: Selectivity vs AKT2” value is reported as 38 and the IC50 was less than 100 nM. This compound also yielded an IC50 in assay [3] of less than 100 nM.

In assay [1], `Nc1ncccc1-c1nc2cccnc2n1-c1ccc(CNC(=O)c2ccc(O)c(C=O)n2)cc1` [Compound 47, N-(4-(2-(2-aminopyridin-3-yl)-3H-imidazo[4,5-b]pyridin-3-yl)benzyl)-6-formyl-5-hydroxypicolinamide] returned an IC50 greater than 500 nM. Further, in assay [2], the “AKT1 E17K IC50: Selectivity vs AKT1 WT” value is given as 1.8, the “AKT1 E17K IC50: Selectivity vs AKT2” value stood at 3.7 and the IC50 is greater than 500 nM. The compound also displayed an IC50 in assay [3] greater than 500 nM.

In assay [1], `Nc1ncccc1-c1nc2ccc(-c3ccccc3)nc2n1-c1ccc(CNCCCc2ccc(C=O)c(O)c2)cc1` [Compound 130, 4-(3-((4-(2-(2-aminopyridin-3-yl)-5-phenyl-3H-imidazo[4,5-b]pyridin-3-yl)benzyl)amino)propyl)-2-hydroxybenzaldehyde] returned an IC50 of 100 to 500 nM. Further, in assay [2], the “AKT1 E17K IC50: Selectivity vs AKT1 WT” value amounted to 1.5, the “AKT1 E17K IC50: Selectivity vs AKT2” value stood at 7 and the IC50 is less than 100 nM. In assay [3], this compound showed an IC50 of less than 100 nM.

Consider `CC(C)(C(=O)NCc1ccc(-n2c(-c3cccnc3N)nc3ccc(-c4ccccc4)nc32)cc1)c1ccc(C=O)c(O)c1` [Compound 60, N-({4-[2-(2-aminopyridin-3-yl)-5-phenylimidazo[4,5-b]pyridin-3-yl]phenyl}methyl)-2-(4-formyl-3-hydroxyphenyl)-2-methylpropanamide], for which the IC50 in assay [1] was greater than 500 nM. In assay [2], the “AKT1 E17K IC50: Selectivity vs AKT1 WT” value is reported as 8.2, the “AKT1 E17K IC50: Selectivity vs AKT2” value stood at 45 and the IC50 was less than 100 nM. The compound also had an IC50 in assay [3] of 100 to 500 nM.

For the compound `Nc1ncccc1-c1nc2ccc(-c3ccccc3)nc2n1-c1ccc(CCNCc2ccc(C=O)c(O)c2F)cc1` [Compound 40, 4-(((4-(2-(2-aminopyridin-3-yl)-5-phenyl-3H-imidazo[4,5-b]pyridin-3-yl)phenethyl)amino)methyl)-3-fluoro-2-hydroxybenzaldehyde], the IC50 in assay [1] is 100 to 500 nM; in assay [2] it was less than 100 nM; in assay [3], less than 100 nM. Moreover, the “AKT1 E17K IC50: Selectivity vs AKT1 WT” value in assay [2] worked out at 2.2. The “AKT1 E17K IC50: Selectivity vs AKT2” value in assay [2] was 6.7.

`Nc1ncccc1-c1nc2ccc(-c3ccccc3)nc2n1-c1ccc(CNC(=O)CCc2ccc(C=O)c(O)c2)cc1` [Compound 117] gave an IC50 in assay [1] of 100 to 500 nM. Moreover, in assay [2], the “AKT1 E17K IC50: Selectivity vs AKT1 WT” value is listed as 0.47, the “AKT1 E17K IC50: Selectivity vs AKT2” value was found to be 2 and the half-maximal inhibitory concentration (IC50) was 100 to 500 nM.

`Nc1ncccc1-c1nc2ccc(-c3ccccc3)nc2n1-c1ccc(CNC(=O)c2ccc(C=O)c(O)c2)cc1` [Compound 138, N-(4-(2-(2-aminopyridin-3-yl)-5-phenyl-3H-imidazo[4,5-b]pyridin-3-yl)benzyl)-4-formyl-3-hydroxybenzamide]: in assay [2], the “AKT1 E17K IC50: Selectivity vs AKT1 WT” value is reported as 0.52 and the IC50 is less than 100 nM. Also, in assay [3], the IC50 was less than 100 nM.
